“Also recorded” adds a separate entry of the source.
How the values were obtained:
Format in all cases: cell-based
[1] = test system: HeLa-RIP3^− or HeLa-RIP3^+ cells; test: Dose response for chemotherapeutic agents, cell viability by trypan blue exclusion; details: 48 hour exposure; for EC50: read-out: ED50 at 48 hours (cell death)
Description: HeLa-RIP3^− or HeLa-RIP3^+ cells (250,000/well) were seeded in six-well plates in complete DMEM medium, and after 24 hours, cells were treated with multiple doses of Fluorouracil. Cell viability was determined 48 hours post treatment via trypan blue exclusion analysis.
HeLa-RIP3^− or HeLa-RIP3^+ cells (250,000/well) were seeded in six-well plates in complete DMEM medium, and after 24 hours, cells were treated with multiple doses of the Trabectedin, Birinapant, or Cisplatin. Cell viability was determined 48 hours post treatment via trypan blue exclusion analysis.

[2] = test system: HeLa (RIP3^+/necroptosis-competent) cells; test: Cell death in the presence of inhibitors of apoptosis and necroptosis; details: for cell death: no inhibitor, Trabectedin 2.5 nM (alone or plus AdCMV-NULL); for cell death in the presence of zVAD: pan caspase inhibitor zVAD 50 μM
Description: In order to understand which of several possible cell death pathways are activated by Fluorouracil or ASN-002 treatment alone and in combination, experiments were carried out with these agents in the presence of inhibitors of apoptosis and/or necroptosis in HeLa (RIP3^+/necroptosis-competent) cells.
(§1) In order to understand which of several possible cell death pathways are activated by Trabectedin treatment alone and in combination with IFN gamma (virus expressed or exogenously added), experiments were carried out with these agents, alone or in combination, in the presence of inhibitors of apoptosis and/or necroptosis inhibitors in both HeLa (RIP3^+/necroptosis-competent) cells and HeLa (RIP3^−/necroptosis-deficient) cells.

[3] = test system: RIP3^− (necroptosis-deficient) HeLa cells; test: Cell death in the presence of a pan caspase inhibitor of apoptosis; details: for cell death: no inhibitor, Trabectedin alone or plus AdCMV-NULL
Description: In follow-up experiments, RIP3^− (necroptosis-deficient) HeLa cells were subjected to the same treatments as described above.
as §1

HeLa-RIP3^− cells = details: Birinapant 5 μM or 30 μM, 48 hours
Description: (§2) HeLa-RIP3^− cells (250,000/well) cells were plated in six-well plates 24 hours prior to infection. ASN-002 infections were performed in serum-free medium at multiplicities of infection (MOI) of 10. Two doses of Fluorouracil were co-administered with viruses, and cell death kinetics was analyzed over the period of 3 days.
as §2, with “chemotherapeutic agents” for “Fluorouracil”

HeLa (RIP3^−) cells = test: Induction of cell death by TNF alpha, trypan blue exclusion; details: TNF alpha 50 ng/ml; under any condition; 12-15 hours
HeLa-RIP3^+ cells = test: Induction of cell death by TNF alpha in the presence of cycloheximide and pan caspase inhibitor zVAD, trypan blue exclusion; details: TNF alpha 50 ng/ml in the presence of cycloheximide (250 ng/ml) plus zVAD (50 μM); relative to untreated cells
Description: HeLa-RIP3 cells (250,000/well) were plated in six-well plates 24 hours prior to treatment with TNF alpha and cycloheximide (TCZ treatment). Cells were pre-treated with CHX (250 ng/ml) and the pan caspase inhibitor zVAD (50 μM) one hour before TNF alpha (50 ng/ml) treatment. Cell viability was determined after 12-15 hours by trypan blue exclusion analysis.

[4] = Fluorouracil 10 μM, Trabectedin 2.5 nM

Molecule | EC50 [1] | cell death ([2]; Fluorouracil 10 μM) | cell death in the presence of zVAD [2, 4] | cell death in the presence of zVAD relative to treatment without inhibitor [3] | cell death [3] | further results
O=c1[nH]cc(F)c(=O)[nH]1 [Fluorouracil] | ~50 µM | approximately 35% | about 80% | slightly lower |  | cell death in the presence of Necrosulfonamide (NSA) ([2]; necroptosis inhibitor NSA 1 μM, Fluorouracil 10 μM): 45%
CC[C@H](NC(=O)[C@H](C)NC)C(=O)N1C[C@@H](O)C[C@H]1Cc1c(-c2[nH]c3cc(F)ccc3c2C[C@@H]2C[C@H](O)CN2C(=O)[C@H](CC)NC(=O)[C@H](C)NC)[nH]c2cc(F)ccc12 [Birinapant] | ~30 µM |  |  |  |  | cell death in combination with control adenovirus (Ad-CMV-NULL) relative to agent alone (HeLa-RIP3^− cells): same level of cell death as Birinapant alone; also recorded: indistinguishable from that induced by Birinapant alone
TNF alpha |  |  |  |  |  | induction of cell death (HeLa (RIP3^−) cells): failed to induce cell death; cell death (HeLa-RIP3^+ cells): about 70%
N.N.[Cl][Pt][Cl] [Cisplatin] |  |  |  |  |  | ED50 at 48 hours (cell death) [1]: ~10 µg/mL
COc1cc2c(cc1O)CCN[C@]21CS[C@@H]2c3c(OC(C)=O)c(C)c4c(c3[C@H](COC1=O)N1[C@@H]2[C@H]2c3c(cc(C)c(OC)c3O)C[C@@H]([C@@H]1O)N2C)OCO4 [Trabectedin] | ~0.01 µM | approximately 35% | about 95% |  | 33% | cell death in the presence of NSA relative to treatment without inhibitor ([2]; NSA): slightly lower; cell death in the presence of both zVAD and NSA ([2]; zVAD plus NSA, Fluorouracil 10 μM, Trabectedin 2.5 nM): about 60%; cell death in the presence of zVAD ([3]; pan caspase inhibitor zVAD): 87%
purified IFN gamma: purified interferon gamma, cytokine (protein, UniProt P01579 24-161, looked up) Interferon gamma: QDPYVKEAENLKKYFNAGHSDVADNGTLFLGILKNWKEESDRKIMQSQIVSFYFKLFKNFKDDQSIQKSVETIKEDMNVKFFNSNKKKRDDFEKLTNYSVTDLNVQRKAIHELIQVMAELSPAAKTGKRKRSQMLFRG |  | ~30% |  | marked, though not complete, rescue of cell death | ~30% | cell death in the presence of zVAD relative to treatment without inhibitor ([3]; listed as IFN gamma): significantly reduced cell death

Source: patent publication US11273170B2, “Methods of treating cancer” (Ascend Biopharmaceuticals Ltd, priority 2016, dated 2022)
